The supplement of paper PMC10307832

Key:
Assay in all cases: relative viability (nuclei count vs DMSO), 5 days (fraction); higher = more cells survive
[1] = compound: Cc1cc([C@@H](C)Nc2ccccc2C(=O)O)c2nc(N3CCOCC3)cc(=O)n2c1 [AZD6482] + Nc1ncn([C@H]2C[C@H](O)[C@@H](CO)O2)c(=O)n1 [Decitabine] (partner 2 µM)
Outline: (§1)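 Lung cancer cell lines in 1536-well plates got either a single drug or a fixed anchor-drug dose together with five library-drug doses (not always all listed) in √10 steps, by pin tool, on the day after seeding. Nuclei were counted after 5 days, and relative viability is the treated-to-vehicle ratio of nuclei counts. Values are medians of duplicate plates.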

[2] = compound: Cc1cc([C@@H](C)Nc2ccccc2C(=O)O)c2nc(N3CCOCC3)cc(=O)n2c1 [AZD6482] + Cc1cc(Nc2cc(N3CCN(C)CC3)nc(Sc3ccc(NC(=O)C4CC4)cc3)n2)n[nH]1 [Tozasertib] (partner 0.1 µM)
Outline: as §1

[3] = compound: COc1cc2nc(N3CCCN(C)CC3)nc(NC3CCN(Cc4ccccc4)CC3)c2cc1OC + O=C(c1cc(Cc2n[nH]c(=O)c3ccccc23)ccc1F)N1CCN(C(=O)C2CC2)CC1 [Olaparib] (partner 8 µM)
Outline: as §1

[4] = compound: COc1cc2nc(N3CCCN(C)CC3)nc(NC3CCN(Cc4ccccc4)CC3)c2cc1OC + CS(=O)(=O)CCNCc1ccc(-c2ccc3ncnc(Nc4ccc(OCc5cccc(F)c5)c(Cl)c4)c3c2)o1 [Lapatinib] (partner 2 µM)
Outline: as §1

## 201T
[1]; first compound 0.08 µM
  relative viability: 0.855
[1]; first compound 0.253 µM
  relative viability: 0.763
[1]; first compound 0.8 µM
  relative viability: 0.844
[1]; first compound 2.53 µM
  relative viability: 0.816
[1]; first compound 8 µM
  relative viability: 0.812
[2]; first compound 0.08 µM
  relative viability: 0.904
[2]; first compound 0.253 µM
  relative viability: 0.889
[2]; first compound 0.8 µM
  relative viability: 0.88
[2]; first compound 2.53 µM
  relative viability: 0.766
[2]; first compound 8 µM
  relative viability: 0.875
[3]; first compound 0.2 µM
  relative viability: 0.849
[3]; first compound 0.6325 µM
  relative viability: 0.853
[3]; first compound 2 µM
  relative viability: 0.875
[3]; first compound 6.325 µM
  relative viability: 0.802
[4]; first compound 0.2 µM
  relative viability: 0.95
[4]; first compound 0.6325 µM
  relative viability: 1.04
[4]; first compound 2 µM
  relative viability: 1.08
[4]; first compound 6.325 µM
  relative viability: 0.982

## A549
[1]; first compound 0.08 µM
  relative viability: 0.27
[1]; first compound 0.253 µM
  relative viability: 0.12
[1]; first compound 0.8 µM
  relative viability: 0.209
[1]; first compound 8 µM
  relative viability: 0.347
[3]; first compound 0.2 µM
  relative viability: 0.309
[3]; first compound 0.6325 µM
  relative viability: 0.374
[3]; first compound 2 µM
  relative viability: 0.206
[3]; first compound 6.325 µM
  relative viability: 0.368
[4]; first compound 0.2 µM
  relative viability: 1.06
[4]; first compound 0.6325 µM
  relative viability: 0.897
[4]; first compound 2 µM
  relative viability: 1.04
[4]; first compound 6.325 µM
  relative viability: 0.827

## A-427
[1]; first compound 0.08 µM
  relative viability: 0.479
[1]; first compound 0.253 µM
  relative viability: 0.53
[1]; first compound 0.8 µM
  relative viability: 0.547
[1]; first compound 2.53 µM
  relative viability: 0.512
[1]; first compound 8 µM
  relative viability: 0.483
[2]; first compound 0.08 µM
  relative viability: 0.219
[2]; first compound 0.253 µM
  relative viability: 0.214
[2]; first compound 0.8 µM
  relative viability: 0.188
[2]; first compound 8 µM
  relative viability: 0.209
[3]; first compound 0.2 µM
  relative viability: 0.708
[3]; first compound 0.6325 µM
  relative viability: 0.705
[3]; first compound 2 µM
  relative viability: 0.833
[3]; first compound 6.325 µM
  relative viability: 0.768
[4]; first compound 0.2 µM
  relative viability: 1.07
[4]; first compound 0.6325 µM
  relative viability: 0.977
[4]; first compound 2 µM
  relative viability: 1.05
[4]; first compound 6.325 µM
  relative viability: 1

## ABC-1
[1]; first compound 0.08 µM
  relative viability: 0.902
[1]; first compound 0.253 µM
  relative viability: 1.14
[1]; first compound 0.8 µM
  relative viability: 0.985
[1]; first compound 2.53 µM
  relative viability: 1.26
[1]; first compound 8 µM
  relative viability: 0.947
[2]; first compound 0.08 µM
  relative viability: 0.168
[2]; first compound 0.253 µM
  relative viability: 0.158
[2]; first compound 0.8 µM
  relative viability: 0.155
[2]; first compound 2.53 µM
  relative viability: 0.201
[2]; first compound 8 µM
  relative viability: 0.216
[3]; first compound 0.2 µM
  relative viability: 1.17
[3]; first compound 0.6325 µM
  relative viability: 0.768
[3]; first compound 2 µM
  relative viability: 0.983
[3]; first compound 6.325 µM
  relative viability: 0.915
[4]; first compound 0.2 µM
  relative viability: 1.09
[4]; first compound 0.6325 µM
  relative viability: 1.14
[4]; first compound 2 µM
  relative viability: 1.25
[4]; first compound 6.325 µM
  relative viability: 1.05

## BEN
[1]; first compound 0.08 µM
  relative viability: 0.621
[1]; first compound 0.253 µM
  relative viability: 0.533
[1]; first compound 0.8 µM
  relative viability: 0.767
[1]; first compound 2.53 µM
  relative viability: 0.509
[1]; first compound 8 µM
  relative viability: 0.581
[2]; first compound 0.08 µM
  relative viability: 0.463
[2]; first compound 0.253 µM
  relative viability: 0.526
[2]; first compound 0.8 µM
  relative viability: 0.472
[2]; first compound 2.53 µM
  relative viability: 0.493
[2]; first compound 8 µM
  relative viability: 0.495
[3]; first compound 0.2 µM
  relative viability: 1.01
[3]; first compound 0.6325 µM
  relative viability: 1.07
[3]; first compound 2 µM
  relative viability: 1.12
[3]; first compound 6.325 µM
  relative viability: 1.07
[4]; first compound 0.2 µM
  relative viability: 0.721
[4]; first compound 0.6325 µM
  relative viability: 0.953
[4]; first compound 2 µM
  relative viability: 0.94
[4]; first compound 6.325 µM
  relative viability: 0.721

## CAL-12T
[2]; first compound 0.08 µM
  relative viability: 0.303
[2]; first compound 0.253 µM
  relative viability: 0.338
[2]; first compound 0.8 µM
  relative viability: 0.37
[2]; first compound 2.53 µM
  relative viability: 0.228
[2]; first compound 8 µM
  relative viability: 0.218
[3]; first compound 0.2 µM
  relative viability: 0.676
[3]; first compound 0.6325 µM
  relative viability: 0.689
[3]; first compound 2 µM
  relative viability: 0.8
[3]; first compound 6.325 µM
  relative viability: 0.699
[4]; first compound 0.2 µM
  relative viability: 0.58
[4]; first compound 0.6325 µM
  relative viability: 0.626
[4]; first compound 2 µM
  relative viability: 0.603
[4]; first compound 6.325 µM
  relative viability: 0.672

## COR-L23
[1]; first compound 0.08 µM
  relative viability: 0.418
[1]; first compound 0.253 µM
  relative viability: 0.386
[1]; first compound 0.8 µM
  relative viability: 0.456
[1]; first compound 2.53 µM
  relative viability: 0.396
[1]; first compound 8 µM
  relative viability: 0.366
[2]; first compound 0.08 µM
  relative viability: 0.183
[2]; first compound 0.253 µM
  relative viability: 0.192
[2]; first compound 0.8 µM
  relative viability: 0.162
[2]; first compound 2.53 µM
  relative viability: 0.153
[2]; first compound 8 µM
  relative viability: 0.171
[3]; first compound 0.2 µM
  relative viability: 0.348
[3]; first compound 0.6325 µM
  relative viability: 0.38
[3]; first compound 2 µM
  relative viability: 0.414
[3]; first compound 6.325 µM
  relative viability: 0.339
[4]; first compound 0.2 µM
  relative viability: 0.848
[4]; first compound 0.6325 µM
  relative viability: 0.849
[4]; first compound 2 µM
  relative viability: 1.1
[4]; first compound 6.325 µM
  relative viability: 0.92

## COR-L 105
[1]; first compound 0.08 µM
  relative viability: 0.67
[1]; first compound 0.253 µM
  relative viability: 0.68
[1]; first compound 0.8 µM
  relative viability: 0.628
[1]; first compound 2.53 µM
  relative viability: 0.601
[1]; first compound 8 µM
  relative viability: 0.559
[2]; first compound 0.08 µM
  relative viability: 0.362
[2]; first compound 0.253 µM
  relative viability: 0.348
[2]; first compound 0.8 µM
  relative viability: 0.352
[2]; first compound 2.53 µM
  relative viability: 0.336
[2]; first compound 8 µM
  relative viability: 0.344
[3]; first compound 0.2 µM
  relative viability: 0.632
[3]; first compound 0.6325 µM
  relative viability: 0.626
[3]; first compound 2 µM
  relative viability: 0.624
[3]; first compound 6.325 µM
  relative viability: 0.372
[4]; first compound 0.2 µM
  relative viability: 0.395
[4]; first compound 0.6325 µM
  relative viability: 0.424
[4]; first compound 2 µM
  relative viability: 0.322
[4]; first compound 6.325 µM
  relative viability: 0.278

## Calu-6
[3]; first compound 0.2 µM
  relative viability: 0.598
[3]; first compound 0.6325 µM
  relative viability: 0.542
[3]; first compound 2 µM
  relative viability: 0.591
[3]; first compound 6.325 µM
  relative viability: 0.537
[4]; first compound 0.2 µM
  relative viability: 1.02
[4]; first compound 0.6325 µM
  relative viability: 0.985
[4]; first compound 2 µM
  relative viability: 1.19
[4]; first compound 6.325 µM
  relative viability: 0.985

## ChaGo-K-1
[1]; first compound 0.08 µM
  relative viability: 0.502
[1]; first compound 0.253 µM
  relative viability: 0.494
[1]; first compound 0.8 µM
  relative viability: 0.489
[1]; first compound 2.53 µM
  relative viability: 0.481
[1]; first compound 8 µM
  relative viability: 0.534
[2]; first compound 0.08 µM
  relative viability: 0.206
[2]; first compound 0.253 µM
  relative viability: 0.22
[2]; first compound 0.8 µM
  relative viability: 0.219
[2]; first compound 2.53 µM
  relative viability: 0.2
[2]; first compound 8 µM
  relative viability: 0.206
[3]; first compound 0.2 µM
  relative viability: 0.386
[3]; first compound 0.6325 µM
  relative viability: 0.44
[3]; first compound 2 µM
  relative viability: 0.375
[3]; first compound 6.325 µM
  relative viability: 0.39

## EBC-1
[3]; first compound 0.2 µM
  relative viability: 0.698
[3]; first compound 0.6325 µM
  relative viability: 0.647
[3]; first compound 2 µM
  relative viability: 0.757
[3]; first compound 6.325 µM
  relative viability: 0.5
[4]; first compound 0.2 µM
  relative viability: 0.222
[4]; first compound 0.6325 µM
  relative viability: 0.177
[4]; first compound 2 µM
  relative viability: 0.18
[4]; first compound 6.325 µM
  relative viability: 0.155
